Measurements taken from article PMC2964311, “The Human Host Defense Peptide LL-37 Interacts with Neisseria meningitidis Capsular Polysaccharides and Inhibits Inflammatory Mediators Release” (PLoS ONE, 2010).
In brackets after ≈: the same amount, converted by molar mass. Where two headings read alike, the source gives them in different places. Residues, ends and D or L forms follow the SMILES beside them. No end group written: not given here. *: point of attachment. Lauroyl = CCCCCCCCCCCC(=O)*

How the values were obtained:
THP-1 cells [1] = assay: TNFα release from THP-1 cells induced with meningococcal CPS pre-incubated with peptide (ELISA); format: cell-based, human
Description: (§1) Human THP-1 (macrophage-like cells) and murine RAW 264.7 (TLR4-sufficient), 23ScCr (TLR4-deficient) and HEK-TLR2/6/CD14 stably transfected cell lines were stimulated with meningococcal CPS polymers with or without pre-incubation with LL-37 and its analogs (Table 1). CPS polymers were purified from the LPS-deficient serogroup B Neisseria meningitidis lpxA mutant as well as other meningococcal serogroups A, B, C, W135 and Y. Purified CPS samples were freshly dissolved in pyrogen-free sterile H2O at 1 mg/ml stock concentration and vortexed for 2 min. Working CPS concentrations (ranging from 100 µg/ml to 50 ng/ml) were made in duplicate wells using sterile PBS by serial fold dilutions in the 96-well tissue culture plates (Becton Dickinson, Franklin Lakes, NJ) at 50 µl final volumes. […] Freshly grown THP-1 cells and HEK-TLR2/6 transfected cells as well as murine macrophages, each adjusted to 10^6 cell/ml and 250 µl aliquots were dispensed into each well at final 250×10^3 cell density in the designated 96-well plates. The plates were incubated overnight at 37°C with 5% CO2 and humidity. Supernatants from stimulated cells were harvested and stored at −20°C until use.
(§2) The cytokines TNFα, IL-6 and CXCL10 (IP-10), released from THP-1 cells, and IL-8, released from HEK-TLR2 transfected cells stimulated with meningococcal CPS polymers, were quantified by DuoSet ELISA (R&D Systems) as previously described.

[2] = tested on: N. gonorrhoeae strain FA 19; details: for MIC activity against gonococci (in words): N. gonorrhoeae FA19
Description: The peptides were dissolved in 0.01 % (v/v) acetic acid and stored at −20°C prior to use. Antibacterial assays were performed as described previously and used N. gonorrhoeae strain FA 19. All assays were performed in triplicate and values are reported as the minimal inhibitory concentration (MIC).

THP-1 cells [3] = assay: IL-6 release from THP-1 cells induced with meningococcal CPS pre-incubated with peptide (ELISA); format: cell-based, human; details: THP-1 cells, CPS-lpxA 100 µg to 50 ng/ml with 10 µg/ml synthetic analogs; Figure 3B
Description: as §1, with “Supernatants from stimulated cells were harvested and stored at −20°C until use.” left out
as §2

RAW 264.7 macrophages = assay: Nitric oxide release from RAW 264.7 macrophages induced with meningococcal CPS (Griess method); format: cell-based, murine; details: RAW 264, serogroup A CPS (laboratory NMA or vaccine grade MAPS 20 µg/ml) pre-incubated with 4 µg/ml analogs; nitrite after 24 h; Figure S1A, S1B
Description: (§3) Human THP-1 (macrophage-like cells) and murine RAW 264.7 (TLR4-sufficient), 23ScCr (TLR4-deficient) and HEK-TLR2/6/CD14 stably transfected cell lines were stimulated with meningococcal CPS polymers with or without pre-incubation with LL-37 and its analogs (Table 1). CPS polymers were purified from the LPS-deficient serogroup B Neisseria meningitidis lpxA mutant as well as other meningococcal serogroups A, B, C, W135 and Y. Purified CPS samples were freshly dissolved in pyrogen-free sterile H2O at 1 mg/ml stock concentration and vortexed for 2 min. Working CPS concentrations (ranging from 100 µg/ml to 50 ng/ml) were made in duplicate wells using sterile PBS by serial fold dilutions in the 96-well tissue culture plates (Becton Dickinson, Franklin Lakes, NJ) at 50 µl final volumes. Cationic peptides (2, 4 or 8 µg/ml) or PBS equivalent volumes were added to designated wells and pre-incubated for 30 min at 37°C. Freshly grown THP-1 cells and HEK-TLR2/6 transfected cells as well as murine macrophages, each adjusted to 10^6 cell/ml and 250 µl aliquots were dispensed into each well at final 250×10^3 cell density in the designated 96-well plates. The plates were incubated overnight at 37°C with 5% CO2 and humidity. Supernatants from stimulated cells were harvested and stored at −20°C until use.
Freshly grown adherent RAW 246.7 or 23ScCr (TLR4-deficient) macrophages were harvested, washed and re-suspended in Dulbecco's complete media, counted and adjusted to 10^6 cell/ml. 250 µl aliquots were then dispensed into each well of a 96-well plate at final 250×10^3 cell density prior to stimulation with purified CPS polymers with or without cationic peptides. The induced RAW 264.7 or 23ScCr macrophages were incubated overnight at 37°C with 5% CO2 and supernatants were harvested and saved. Nitric oxide release was quantified using the Greiss chemical method as previously described.

[4] = tested on: ScCr (TLR4-deficient) murine macrophages; assay: Nitric oxide release from 23ScCr (TLR4-deficient) macrophages induced with meningococcal CPS (Griess method); format: cell-based; details: ScCr cells, 20 µg/ml CPS of serogroups A, B, C, Y, W135 pre-incubated 30 min with 4 µg/ml LL-37 analogs or 20 µg/ml ampicillin or erythromycin; overnight; Figure 6
Description: as §3, with “Freshly grown THP-1 cells and HEK-TLR2/6 transfected cells as well as murine macrophages, each adjusted to 10^6 cell/ml and 250 µl aliquots were dispensed into each well at final 250×10^3 cell density in the designated 96-well plates. The plates were incubated overnight at 37°C with 5% CO2 and humidity. Supernatants from stimulated cells were harvested and stored at −20°C until use.” left out
Freshly grown adherent RAW 246.7 or 23ScCr (TLR4-deficient) macrophages were harvested, washed and re-suspended in Dulbecco's complete media, counted and adjusted to 10^6 cell/ml. […] Nitric oxide release was quantified using the Greiss chemical method as previously described.

purified CPS polymers = assay: Neutralizing activity against purified CPS polymers (pro-inflammatory capacity of CPS); format: cell-based, Neisseria meningitidis; details: compared with LL-37
Description: as §3

NFκB = assay: Inducible NFκB dual luciferase reporter in HEK-TLR2/6 cells stimulated with CPS-lpxA; format: cell-based, human; details: CPS-lpxA (20 µg/ml) pre-incubated with analogs (4 µg/ml) 30 min, induction 5 h, firefly normalized to Renilla, Figure 7A
Description: To determine the signaling pathways induced upon meningococcal CPS recognition, a transcription factors array (Cignal Finder™ 10-Pathway Reporter Arrays, SABiosciences, Fredrick, MD) consisting of 10 dual-luciferase reporters assays were used according to the manufacturer instructions. Each of the 10 reporter assays encodes for an inducible transcription factor responsive firefly luciferase reporter and constitutively expressing Renilla construct in 40∶1 ratio. Briefly, DNA reporter master mixes were prepared in SureFect transfection reagent (SABiosciences) diluted in Opti-MEM media without serum or antibiotics and 25 µl/well were dispensed into 96-well white tissue culture plates. For reverse transfection, freshly grown cells were counted and adjusted to 1×10^6 cells/ml in Opti-MEM without serum or antibiotics. 100 µl of cells (100×10^3 cells/well) were laid over the DNA reporters in 96-well plates and incubated overnight at 37°C with 5% CO2. Transfection media were removed and replaced with 150 µl of fresh D-MEM supplemented with 10% FBS and incubated again overnight at 37°C. Cells were then induced with meningococcal CPS polymers or LOS doses for 5 h and dual-luciferase reporter activity was determined using Dual-Luciferase reporter assay system (Promega Corporation, Madison, WI) following the manufacturer instructions. […]

**Q.** Which “Inhibition of TNFα release (interaction with CPS polymers)” value (THP-1 cells [1]; THP-1 cells, CPS-lpxA 100 µg to 50 ng/ml with 10 µg/ml synthetic analogs, Figure 3A) does the source give for CCCCCCCCCCCC(=O)N[C@@H](Cc1ccccc1)C(=O)N[C@@H](CCCCN)C(=O)N[C@@H](CCCNC(=N)N)C(=O)N[C@H](C(=O)N[C@H](C(=O)N[C@@H](CCC(N)=O)C(=O)N[C@@H](CCCNC(=N)N)C(=O)N[C@H](C(=O)N[C@@H](CCCCN)C(=O)N[C@@H](CC(N)=O)C(=O)N[C@@H](Cc1ccccc1)C(=O)N[C@@H](CC(C)C)C(=O)N[C@@H](CCCNC(=N)N)C(=O)N[C@@H](CC(N)=O)C(=O)N[C@@H](CC(C)C)C(=O)N[C@H](C(=O)O)C(C)C)[C@@H](C)CC)C(C)C)[C@@H](C)CC [C12LL-17-32 D/N] (Lauroyl-FKRIVQRIKNFLRNLV-OH; C-terminus assumed) here?
**A.** Its value is “enhanced interaction with meningococcal CPS polymers”.

**Q.** And the MIC ([2]; strain FA 19)?
**A.** The MIC was 3.9 µg/mL (≈ 1.75 µM).

**Q.** And the “Inhibition of IL-6 release (interaction with CPS polymers)” value (THP-1 cells [3])?
**A.** The value was “enhanced interaction with meningococcal CPS polymers”.

**Q.** How did the “Inhibition of CPS polymers (nitric oxide release)” value (RAW 264.7 macrophages) turn out when CC1(C)S[C@@H]2[C@H](NC(=O)[C@H](N)c3ccccc3)C(=O)N2[C@H]1C(=O)O [ampicillin] was run?
**A.** Its value is “this was not seen”.

**Q.** And the “Nitric oxide release induced by various meningococcal CPS” value [4]?
**A.** Its value is “this inhibition was not observed”.

**Q.** Which “Nitric oxide release induced by various meningococcal CPS” value [4] does the source give for CC[C@H]1OC(=O)[C@H](C)[C@@H](O[C@H]2C[C@@](C)(OC)[C@@H](O)[C@H](C)O2)[C@H](C)[C@@H](O[C@@H]2O[C@H](C)C[C@H](N(C)C)[C@H]2O)[C@](C)(O)C[C@@H](C)C(=O)[C@H](C)[C@@H](O)[C@]1(C)O [erythromycin] here?
**A.** The value was “this inhibition was not observed”.

**Q.** Which MIC ([2]; strain FA 19) does the source give for EKIGKEFKRIVQRIKDFLRNLVPRTES [LL-11-37] here?
**A.** Its MIC is 7.8 µg/mL.

**Q.** For FKRIVQRIKDFLRNLV [LL-17-32], which MIC ([2]; strain FA 19) is on record?
**A.** The MIC was 3.9 µg/mL.

**Q.** How did the MIC ([2]; strain FA 19) turn out when FKRIVQRIKNFLRNLV [LL-17-32 D/N] was run?
**A.** The MIC was 3.9 µg/mL.

**Q.** With “LLGDFFDESEEEIGEEFEDIVQDIEDFLDNLVPDTES [LL-37 R/D-K/E]” as the molecule, how does the MIC ([2]; strain FA 19) read?
**A.** Its MIC is >1000 µg/mL.

**Q.** Which MIC ([2]; strain FA 19) does the source give for “LLGDFFDKSKEKIGKEFKDIVQDIKDFLDNLVPDTES [LL-37 R/D]” here?
**A.** The MIC was 125 µg/mL.

**Q.** “LLGDFFRASAEAIGAEFARIVQRIADFLRNLVPRTES [LL-37 K/A]” was tested. Which MIC ([2]; strain FA 19) did it give?
**A.** The MIC was >1000 µg/mL.

**Q.** “LLGDFFRESEEEIGEEFERIVQRIEDFLRNLVPRTES [LL-37 K/E]” was tested. Which “Neutralizing activity against purified CPS polymers” value (“Neutralizing activity” for short) (purified CPS polymers) did it give?
**A.** The value was “reduced neutralizing activity”.

**Q.** And the MIC ([2]; N. gonorrhoeae FA19 (non-encapsulated), assays in triplicate)?
**A.** The MIC was > 1000 µg/mL.

**Q.** For LLGDFFRKSKEKIGKEF [LL-1-17], which MIC ([2]; strain FA 19) is on record?
**A.** Its MIC is >1000 µg/mL.

**Q.** Which “Neutralizing activity” value (purified CPS polymers) does the source give for “LLGKFFKKSKKKIGKKFKKIVQKIKKFLKNLVPKTKS [LL-37 K]” here?
**A.** Its value is “did not enhance the neutralizing activity”.

**Q.** What about the “MIC activity against gonococci (in words)” value [2] of the same molecule?
**A.** Its value is “retained excellent MIC activity”.

**Q.** And the MIC ([2]; strain FA 19)?
**A.** Its MIC is 7.8 µg/mL.

**Q.** Which “Neutralizing activity” value (purified CPS polymers) does the source give for “LLGRFFRRSRRRIGRRFRRIVQRIRRFLRNLVPRTRS [LL-37 R]” here?
**A.** Its value is “did not enhance the neutralizing activity”.

**Q.** What about the “MIC activity against gonococci (in words)” value [2] of the same molecule?
**A.** The value was “retained excellent MIC activity”.

**Q.** What about the MIC ([2]; strain FA 19) of the same molecule?
**A.** Its MIC is 15.6 µg/mL.

**Q.** What does the source list for Polymyxin B?
**A.** Inhibition of CPS polymers (nitric oxide release) (RAW 264.7 macrophages): inhibited CPS polymers; CPS induced NFκB induction (luciferase reporter) (NFκB): able to inhibit; TNFα release (THP-1 cells [1]; THP-1 cells induced with the CPS-lpxA-analog complexes of the NFκB experiment, Figure 7B): decreased TNFα release
